# From US7517890B2, “GTPase inhibitors and methods of use” (Children's Hospital Medical Center, priority 2003, dated 2009)
# What was measured:
# endogenous RhoA = endogenous RhoA (Mus musculus, UniProt Q9QUI0); experiment: Endogenous Rho GTPase activity assay (GST-Rhotekin pull-down), RhoA in NIH 3T3 cells; conditions: NIH 3T3 cells in 10% serum
# Method: Endogenous Rho GTPase activity assay. […] Cells are grown in log phase in a 10 cm dish, and are starved in 0.5% serum medium or indicated otherwise for 24 hrs prior to lysis in a buffer containing 20 mM Tris-HCl (pH 7.6), 100 mM NaCl, 10 mM MgCl2, 1% NP-40, 10% glycerol, and 1× proteases inhibitor cocktail (Roch). Lysates are clarified and the protein concentrations are normalized. The cell lysates containing equal amount of proteins are incubated with 10 μg GST- or His6-fusion probes for 40 min at 4° C. under constant rotation. The beads are washed twice with the lysis buffer, and the bound-Rho GTPases are detected by anti-Rac1 (Upstate), or anti-Cdc42 (BD Transduction Laboratories) Western blotting. Quantification of the Western blots is carried out using a LAS-1000 luminescent image analyzer (Fujifilm medical system, USA, Inc.).
# Cell lysates containing similar amount of Rac1, Cdc42 or RhoA were incubated with the agarose immobilized GST-PAK1, GST-WASP or GST-Rhotekin, and the co-precipitates were subjected to anti-Rac1, Cdc42 or RhoA Western blot analysis to reveal the amount of GTP-Bound Rho proteins.
# Swiss 3T3 cells = experiment: Immunofluorescence of PDGF-stimulated lamellipodia formation (actin staining); conditions: for PDGF induction of lamellipodia at the cell edges in the presence of compound: 100 μM compound, 10 nM PDGF
# Method: Immunofluorescence. […] The cellular actin is stained with TRITC-labeled phalloidin (Sigma) at 10 μg/ml in PBS for 40 min at room temperature. The actin and cell morphological changes are visualized by fluorescence microscopy.
# The cells were fixed and stained with Rhodamine-labeled phalloidin.
# [1] = target: T1, RhoA binding to PDZ-RhoGEF (Homo sapiens, UniProt P61586); experiment: Complex formation assay, RhoA with PDZ-RhoGEF; conditions: varying concentrations of compound
# T1 construct: made in house; host or cells: Cos-7 (PDZ-RhoGEF, used as lysate)
# T1 sequence (P61586 whole entry): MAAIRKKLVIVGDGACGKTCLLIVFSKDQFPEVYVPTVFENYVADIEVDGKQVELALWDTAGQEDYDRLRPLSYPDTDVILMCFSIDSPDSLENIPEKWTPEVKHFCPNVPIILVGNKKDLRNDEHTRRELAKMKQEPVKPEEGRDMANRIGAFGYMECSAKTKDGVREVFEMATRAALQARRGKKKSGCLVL
# Method: Trio and Tiam-1 co-precipitate with GST-Rac1, but not GST or GST-Cdc42.
# In FIG. 2A, 0.5 μg of (His)6-tagged TrioN was incubated with GST alone or nucleotide-free, GST-fused Cdc42 or Rac1 (2 μg) in the binding buffer containing different concentrations of NSC23766 and 10 μl suspended glutathione-agarose. After an incubation at 4° C. for 30 minutes, the beads associated (His)6-TrioN were detected by anti-His Western blotting. The blots were quantified by densitometry analysis. The results are representative of three measurements. In FIG. 2B, myc-tagged Tiam1 expressed in Cos-7 cell lysates were incubated with (His)6-Rac1 in the presence of increasing concentrations of NSC23766. The association of Rac1 with Tiam1 was examined by anti-His blot after anti-myc immunoprecipitation. In FIG. 2C, the AU-tagged PDZ-RhoGEF was expressed in Cos-7 lysates and incubated with GST or GST-RhoA in the presence of varying concentrations of NSC23766. The RhoA associated PDZ-RhoGEF was probed with anti-AU antibody after affinity precipitation by glutathione agarose beads. In FIG. 2D, (His)6-Rac1 loaded with GTPγ S was incubated with GST-BcrGAP or GST-PAK1 (PBD) in the presence or absence of 200 μM NSC23766 and the interaction with GSTBcrGAP or GST-PAK1 was probed by anti-His blot after affinity precipitation by glutathione agarose beads.
# PC-3 cells [2] = experiment: Anchorage independent growth of PC-3 cells in soft agar
# Excerpt: Anchorage independent growth.
# The cells were split in triplicate in 96-wells at 1.5×10^3 cells per well.
# NIH 3T3 cells = experiment: Cell growth assay, wild type and RacL61- or GEF-transfected NIH 3T3 cells; assay type: cell-based; conditions: 5% serum, 100 μM compound
# [3] = target: PDZ-RhoGEF-stimulated mantGDP/GTP exchange of RhoA (Homo sapiens, UniProt P61586); experiment: In vitro guanine nucleotide exchange assay (mant-GDP), RhoA / PDZ-RhoGEF; assay type: biochemical; conditions: 200 μM compound
# PDZ-RhoGEF-stimulated mantGDP/GTP exchange of RhoA, sequence (P61586 whole entry): as above
# Method: In vitro guanine nucleotide exchange assay. For these, 200 nM Rac1 loaded with mant-GDP is incubated at 25° C. in an exchange buffer containing 100 mM NaCl, 5 mM MgCl2, 50 mM Tris-HCl (pH 7.6), and 0.5 mM GTP in the absence or presence of 200 nM Trio. The mant-GDP fluorescence changes in the course of the exchange reactions are monitored with an excitation wavelength at 360 nm and the emission wavelength at 440 nm by a Cary Ellipse fluorescence spectrometer (Varian, Inc.).
# In FIG. 3. […] In FIG. 3A, NSC23766 inhibited TrioN catalyzed GDP/GTP exchange of Rac1 in a dose dependent manner. 200 nM Rac1 loaded with mant-GDP was incubated at 25° C. in an exchange buffer containing 100 mM NaCl, 5 mM MgCk2, 50 mM Tris-HCl (PH 7.6), and 0.5 mM GTP in the absence (top line) or presence of 100 nM TrioN. Increasing concentrations of NSC23766 were included in the exchange buffer as indicated. In FIG. 3B, NSC23766 had no effect on the Intersectin-stimulated GDP/GTP exchange of Cdc42. 200 nM Cdc42 loaded with mant-GDP was incubated in the exchange buffer in the absence (top line) or presence of 100 nM Intersectin with or without 200 μM NSC23766. In FIG. 3C, the exchange reaction of RhoA catalyzed by PDZ-RhoGEF was carried out similarly in the presence or absence of 200 μM NSC23766.
# PC-3 cells [4] = experiment: PC-3 cell growth (CellTiter 96 AQueous assay); conditions: 5% serum, indicated concentrations of compound
# Method: Cell growth assay. […] The growth rate of the prostate PC-3 cells is measured by the CellTiter 96 AQueous assay (Promega). 1,500 cells/well in 200 μl of 5% FBS medium are plated in 96-well plates and are grown under normal conditions. Cultures are assayed in 0, 1, 2, 3, 4, or 5 days by the addition of 20 μl of the combined MTS/PMS solution followed by incubation for one hour at 37° C. Absorbency is measured at a wavelength of 490 nm on an automated microplate reader.
# The cells were split in triplicate in 96-wells at 1.5×10^3 cells per well. Cell numbers were assayed by using CellTiter 96 AQueous cell proliferation assay kit in different days.
# PC-3 cells [5] = experiment: Matrigel cell invasion assay; conditions: 25 μM compound, 24 hrs
# Method: Cell invasion assays. The cell invasion assays are performed using 6.4-mm Biocoat Matrigel invasion chambers with 8.0-micron pore size PET membrane (Becton-Dickinson) according to the manufactory instructions. Briefly, 5×10^4 cells are resuspended in 0.5 ml of serum free culture medium and added to the upper chamber. 10% fetal bovine serum in the culture medium is used as a chemo-attractant in the lower chamber. After the cells are incubated for overnight, the number of cell passed through the Matrigel is counted.
# Cells invaded through Matrigel matrix were visualized with Giemasa staining.
# [6] = test system: Tiam1-expressing NIH 3T3 cells; experiment: Transformation of GEF-expressing NIH 3T3 cells (foci, soft agar); assay type: cell-based; conditions: foci: 50 μM every two days, 14 days, soft agar: 100 μM
# endogenous RhoA, sequence (Q9QUI0 whole entry): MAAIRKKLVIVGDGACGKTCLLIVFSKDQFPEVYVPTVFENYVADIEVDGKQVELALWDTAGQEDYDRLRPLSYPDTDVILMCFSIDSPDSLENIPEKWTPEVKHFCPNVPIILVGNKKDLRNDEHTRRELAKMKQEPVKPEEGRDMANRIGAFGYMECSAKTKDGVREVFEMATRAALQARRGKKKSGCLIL
smiles,measurement,setting,value
"CCN(CC)CCCC(C)Nc1nc(C)cc(Nc2ccc3nc(C)cc(N)c3c2)n1 (stereo not drawn) [compound 23766, N^6-(2-((4-(diethylamino)-1-methylbutyl)amino)-6-methyl-4-pyrimidinyl)-2-methyl-4,6-quinolinediamine]",level of RhoA-GTP in cells,endogenous RhoA,slightly increased level
same,PDGF-stimulated lamellipodia formation,"Swiss 3T3 cells; 50 μM compound, overnight serum starvation, 10 nM PDGF (FIG. 4C legend)",inhibited PDGF-stimulated lamellipodia formation
same,PDGF induction of lamellipodia at the cell edges in the presence of compound,Swiss 3T3 cells; 5 min,only marginally effective
same,PDGF induction of lamellipodia at the cell edges in the presence of compound,Swiss 3T3 cells; 10 min,completely ineffective
same,effect on RhoA binding to PDZ-RhoGEF,[1],does not interfere
same,size of colonies of treated cells versus untreated,PC-3 cells [2],much smaller
same,colony-forming activity remaining,PC-3 cells [2]; 25 μM compound,Approximately 10%
same,colony-forming activity remaining,PC-3 cells [2]; 50 μM compound,~1%
same,growth of wild type NIH 3T3 cells,NIH 3T3 cells,slow the growth
same,growth rate of Rac1L61 expressing NIH 3T3 cells,NIH 3T3 cells,no effect
same,cell growth induced by the Rac specific GEF Trio,NIH 3T3 cells; GEF expressing NIH 3T3 cells,capable of inhibiting
same,effect on PDZ-RhoGEF-stimulated mantGDP/GTP exchange of RhoA,[3],little impact
same,proliferation rates of PC-3 cells,PC-3 cells [4],inhibited by compound 23766 in a dose dependent manner
same,PC-3 cell invasion,PC-3 cells [5],significantly inhibits
same,Rac GEF stimulated cell growth and transformation,[6],specifically inhibited
